{
  "source": "patent US8796340B2",
  "about": "“Pharmaceutical composition comprising propofol” (Novaliq GmbH, priority 2009, dated 2014)",
  "source_text": "In further embodiments, the propofol concentration is from about 0.01 wt.-% to about 80 wt.-%, or from about 0.1 wt-% to about 50 wt.-%, or from about 1 wt.-% to about 20 wt.-%, or from about 2 wt.-% to about 20 wt.-%, respectively. In further embodiments, the strength is about 1 wt.-% or higher, such as about 2 wt.-%, 5 wt.-%, 10 wt.-%, 20 wt.-%, or 25 wt.-%.",
  "data": [
    {"smiles": "CC(C)c1cccc(C(C)C)c1O", "note": "[propofol, 2,6-di(propan-2-yl)phenol]", "values": [
      {"measurement": "propofol concentration possible in SFA solutions", "setting": "SFA solutions", "result": "up to 960 mg/mL"},
      {"measurement": "miscibility with SFA's", "setting": "in most SFA's including F4H5, F6H6 and F6H8", "result": "freely miscible"}
    ]}
  ]
}
